Measurements from patent publication US20260373294A1, “PHARMACEUTICAL COMPOSITIONS COMPRISING A PSYCHEDELIC DRUG AND A DENDRITIC NANOCARRIER” (priority 2023, published 2026).
“Also recorded” adds a separate entry of the source. Where two headings read alike, the source gives them in different places.

Legend:
[1] = intravenous administration of psilocybin; US2022370413A1; cited from earlier work
[2] = cited from earlier work
[3] = test system: N-methyl-D-aspartate receptor (NMDAR); conditions: cited from earlier work
[4] = Exemplary stability experiment, visual grading of psilocin samples with carriers or stabilizers (Example 6); assay type: physicochemical; set-up: key to stability, visually graded, under Vacuum at 25 °C / stability, visually graded, at room temperature exposed to air / stability, visually graded, at 50 °C, exposed to air: 0: dark precipitate visible = not stable; 1: discolored = moderately stabilized; 2: slightly discolored = stabilized; 3: transparent = highly stabilized
From the text: Psilocin was mixed with two different batches of CMS carrier (DendroSol®), two different batches of dendritic succinate (hPG-succ, one of which had 25% substitution with succinate, the other one 100%) and two different batches of dendritic succinate functionalized with nalbuphine as anchor molecule (liked via an ester), as well as dendritic succinate deprotonized with NaOH. For comparison, we also mixed psilocin with known stabilizers oxalic acid and ascorbic acid (vitamin C), as well as mixtures of vitamin C with the carriers named above. One sample of pure psilocin solution was kept as a reference.
All samples contained 5 mg/L of psilocin and 2.5 wt % of carrier (for carriers mixed with oxalic acid or vitamin C, the total concentration of additives was 2.5 wt %). In the second part of the experiment, the carrier concentration was varied between 0.6 and 3 wt %.

[5] = cited from earlier work; remark: listed apart in the source
5-HT2A receptor = conditions: cited from earlier work
[6] = Diffusion cell tests with porcine oral mucosa (Franz cells) (Example 8); assay type: in vitro ADME; conditions: 2.5% DendroSol; 0.025 mg/100 μL LSD
Description: FIG. 3 Diffusion cell tests with psilocin, LSD and MDMA in Franz cells in the absence and presence of carrier. The tests were carried out with porcine oral mucosa as described in Example 8 below. Each carrier formulation was used on four diffusion cells each. In the graphic, mean values are shown.
Diffusion cell tests were carried out with porcine oral mucosa. Porcine mucosa was freshly prepared and kept in physiological buffer at pH 7.2 at temperatures between 2-8 °C for less than 36 h prior the experiment. The prepared oral mucosa thickness was 0.4-0.65 mm. Concentrations were determined by HPLC-UV. Four diffusion cells with a surface area of 0.54 cm^2 and an acceptor volume of 12.7 mL were used in the experiments for each formulation. Drug-carrier solutions wherein the solvent was water were prepared by either dissolving the drug in ethanol in a glass beaker, letting the ethanol evaporate under high vacuum and then dissolving the drug in the buffered nanocarrier solution. Alternatively, the drug was mixed with the carrier in ethanol in final conditions, the resulting mixture was dried under high vacuum in case of psilocin and afterwards re-dissolved in purified HPLC water.
Each carrier formulation was used on four diffusion cells each. In the graphic, the results were averaged.
Acceptor medium was physiological NaCl solution which was phosphate-buffered to pH 7.2. […]

[7] = taken by mouth; cited from earlier work

For `CN(C)CCc1c[nH]c2cccc(OP(=O)(O)O)c12` [psilocybin], the “variation of maximum plasma concentrations of psilocin between individuals” value [1] is given as “can vary over three-fold between individuals”.

For `CNC1(c2ccccc2Cl)CCCCC1=O` (racemic) [(R,S)-ketamine], the “effect in treatment-resistant PTSD” value ([2]; patients with treatment-resistant post-traumatic stress disorder) is given as “beneficial effects”, the antidepressant effect ([2]; treatment-resistant MDD or BD, single or repeated intravenous infusions, 0.5 mg/kg) is given as “robust antidepressant and antisuicidal effects” and the “NMDAR antagonism / interaction” value [3] is given as “antagonist of the NMDAR”.

In the case of `CN(C)CCc1c[nH]c2cccc(O)c12` [Psilocin], the “stability, visually graded, at 50 °C, exposed to air” value ([4]; 50 °C, exposed to air, all samples contain psilocin (5 mg/L) and 2.5 wt % carrier/additive) is reported as 0, the “stability of psilocin, conclusion” value ([4]; conclusion in words) is reported as “could be significantly improved by adding the right carriers” and the “effectiveness of carriers for stabilizing psilocin (ranking)” value ([4]; order of effectiveness, lowest first) is reported as “pure psilocin<CMS carrier (DendroSol®)<oxalic acid<dendritic succinate (25%)<dendritic succinate (100%)=functionalized dendritic succinate=dendritic succinate deprotonized with NaOH”. For the same compound, the “stability, visually graded, at room temperature exposed to air” value ([4]; room temperature, exposed to air, all samples contain psilocin (5 mg/L) and 2.5 wt % carrier/additive) was 0, the “stability, visually graded, under Vacuum at 25 °C” value ([4]; under vacuum at 25 °C, all samples contain psilocin (5 mg/L) and 2.5 wt % carrier/additive) was 3 and the “stability in biological samples” value ([5]; blood or urine) was “unstable and is degraded fast by both non-enzymatic and enzymatic processes”. The “stability in ambient and aqueous environments” value ([5]; exposed to air and aqueous) was “poor stability due to photodegradation and oxidation”, the “peak loss over 14 days” value ([5]; psilocin sample protected from light, 14 days) was 50% and the 5-HT2A receptor agonism (5-HT2A receptor) was 5-HT2A receptor agonists.

In the case of `CCN(CC)C(=O)[C@@H]1C=C2c3cccc4[nH]cc(c34)C[C@H]2N(C)C1` [LSD], the “effect of carrier on diffusion rate, water vs ethanol as solvent” value [6] is listed as “the effect was greater when water was used as solvent than with use of ethanol as solvent”, the 5-HT2A receptor agonism (5-HT2A receptor; listed as (+) lysergide) is listed as “partial agonist with a high affinity to this receptor” and the 5-HT2A receptor agonism (5-HT2A receptor; listed as lysergide) is listed as 5-HT2A receptor agonists.

For `CN[C@]1(c2ccccc2Cl)CCCCC1=O` [(S)-ketamine], the “NMDAR antagonism / interaction” value [3] is given as “stronger”.

In the case of `COc1cc(CCN)cc(OC)c1OC` [mescaline], the 5-HT2A receptor agonism (5-HT2A receptor) is given as 5-HT2A receptor agonists.

In the case of `CNC(C)Cc1ccc2c(c1)OCO2` (stereo not shown) [MDMA, 3,4-methylenedioxymethamphetamine], the duration of effects [7] is given as 3 to 6 h and the onset of effects [7] is given as 30 to 45 min.

For `CN[C@@]1(c2ccccc2Cl)CCCCC1=O` [(R)-ketamine], the “antidepressant potency and duration, relative” value ([2]; (R)-ketamine relative to (S)-ketamine) is listed as “more long-lasting; also recorded: greater potency and longer-lasting antidepressive effects”.

For `CNC1(c2ccccc2Cl)CCCCC1=O` (stereo not shown) [ketamine], the “NMDAR antagonism / interaction” value [3] is listed as “antagonist of the N-methyl-D-aspartate receptor”.
